Reference: ChEMBL document CHEMBL3272187, “Synthesis of N-hydroxyacetaminophen, a postulated toxic metabolite of acetaminophen, and its phenolic sulfate conjugate” (J Med Chem, 1978)

Key:
Format in all cases: physicochemical
[1] = Aqueous stability of the compound in 100 mM HCl buffer assessed as half life at 2 mM at pH 1.5 at 37 degC by ferric chloride assay
[2] = Aqueous stability of the compound in 100 mM Na2HPO4 buffer assessed as half life at 2 mM at pH 6.6 at 37 degC by ferric chloride assay
[3] = Aqueous stability of the compound in 100 mM Na2HPO4 buffer assessed as half life at 2 mM at pH 7.0 at 37 degC by ferric chloride assay
[4] = Aqueous stability of the compound in 100 mM Na2HPO4 buffer assessed as half life at 2 mM at pH 7.2 at 37 degC by ferric chloride assay
[5] = Aqueous stability of the compound in 100 mM Na2HPO4 buffer assessed as half life at 2 mM at pH 8.0 at 37 degC by ferric chloride assay
[6] = Aqueous stability of the compound in 100 mM NaOH buffer at 2 mM at pH 12.7 at 37 degC by ferric chloride assay; conditions: pH 12.7, 2000 µM
[7] = Aqueous stability of the compound in 100 mM Na2HPO4 buffer assessed as half life at 2 mM at pH 8.5 at 37 degC by ferric chloride assay

half-life at 2000 µM [1] [h] | half-life at 2000 µM [2] [h] | half-life at 2000 µM [3] [h] | half-life at 2000 µM [4] [h] | half-life at 2000 µM [5] [min] | Stability [6] | half-life at 2000 µM [7] [h] | SMILES
18.3 | 2.5 | 1.1 | 0.35 | 9.8 | Stable |  | CC(=O)N(O)c1ccc(O)cc1
15.2 |  |  |  |  | Stable | 217 | CC(=O)N(O)c1ccc(OS(=O)(=O)[O-])cc1.[K+]
